# Results published in patent US8168232B2, “Formulations and methods of using nitric oxide mimetics in cancer treatment” (priority 2000, dated 2012).
# Assays:
# [1] = system: MDA-MB-231 breast cancer cells; experiment: Colony formation assay for doxorubicin resistance, MDA-MB-231 monolayer; type: cell-based, human; conditions: 200 μM doxorubicin
# Procedure: The resistance of MDA-MB-231 breast cancer cells to doxorubicin was determined following culture in 20% or 1% oxygen by counting the number of colonies formed. MDA-MB-231 cells were incubated in 1% O2 or 20% O2 for 24 hours. […] The cells were washed and then plated onto 35 mm plates at different dilutions. The cells were incubated for an additional 1-2 weeks in order to allow cell colonies to grow. At the end of the incubation period, the cells were fixed with Carnoy's fixative, stained with Crystal violet, rinsed and allowed to air dry. Colonies were counted visually. The surviving cells under each condition was determined by counting the number of colonies and was expressed as a fraction of the number of colonies that survived without doxorubicin exposure.
# Using human MDA-MB-231 breast carcinoma cells in clonogenic assays, survival was determined following doxorubicin exposure and NO mimetic administration to both monolayer and spheroid cultures. […] However, these NO mimetics effectively attenuated the resistance to 200 μM doxorubicin associated with 3D culture by 90% and 30% respectively.
# [2] = system: human PC-3 prostatic adenocarcinoma cells; conditions: 0.5% vs 20% O2; one-hour doxorubicin
# Procedure: (§1) Low tumor oxygenation (hypoxia) correlates with increased metastasis and resistance to radiotherapy and chemotherapy. […] This was followed by a one-hour incubation with doxorubicin and survival was assessed by colony formation assays. Western blot analysis was used to measure NO synthase (NOS) protein levels in cells cultured in 20% and 0.5% O2.
# [3] = system: mouse TRAMP-C2 prostatic adenocarcinoma cells; conditions: 0.5% vs 20% O2; one-hour doxorubicin
# Procedure: as §1
# [4] = system: MDA-MB-231 breast carcinoma spheroids; experiment: Clonogenic survival of MDA-MB-231 spheroids after doxorubicin; type: cell-based, human; conditions: 200 μM doxorubicin
# Procedure: Following initial cell plating, spheroids formed for 24, 48, 72, 96 or 120 h. At each time point, spheroids were exposed to 200 μM of doxorubicin, then disaggregated and plated for assessment of colony formation (survival).
# Spheroids were allowed to form for 72 h. DETA/NO was applied for the final 24 h of spheroid formation. Spheroids were then exposed to doxorubicin for 1 h, prior to disaggregation and plating for assessment of survival by clonogenic assay.
# Using human MDA-MB-231 breast carcinoma cells in clonogenic assays, survival was determined following doxorubicin exposure and NO mimetic administration to both monolayer and spheroid cultures.
smiles,measurement,setting,value
COc1cccc2c1C(=O)c1c(O)c3c(c(O)c1C2=O)C[C@@](O)(C(=O)CO)C[C@@H]3O[C@H]1C[C@H](N)[C@H](O)[C@H](C)O1 [doxorubicin],survival in monolayer culture,[1],zero
same,increased survival following doxorubicin after pre-incubation under hypoxia,[2],up to 8 fold
same,increased survival following doxorubicin after pre-incubation under hypoxia,[3],up to 12 fold
same,decrease in survival of tumor cells cultured as spheroids,[4],90%
